This passage reports Activity, IC50 and Ki results from ChEMBL document CHEMBL1157158, “Synthesis and neuropharmacological evaluation of 2-aryl- and alkylapomorphines” (Bioorg Med Chem, 2008).

The structures appear in SMILES notation.

In experiment [1] the test system is Mus musculus. The experiment in a line: Dopaminergic activity in CD1 mouse striatum assessed as dopamine turn over at 3.29 umol/kg, sc relative to control. The class given is functional.
The next experiment deals with D(2) dopamine receptor (Rattus norvegicus, UniProt P61169). The experiment in a line: Displacement of [3H]spiperone from rat dopamine D2 receptor in brain striatal membrane. The class given is cell membranes.
Sequence of D(2) dopamine receptor (P61169 whole entry): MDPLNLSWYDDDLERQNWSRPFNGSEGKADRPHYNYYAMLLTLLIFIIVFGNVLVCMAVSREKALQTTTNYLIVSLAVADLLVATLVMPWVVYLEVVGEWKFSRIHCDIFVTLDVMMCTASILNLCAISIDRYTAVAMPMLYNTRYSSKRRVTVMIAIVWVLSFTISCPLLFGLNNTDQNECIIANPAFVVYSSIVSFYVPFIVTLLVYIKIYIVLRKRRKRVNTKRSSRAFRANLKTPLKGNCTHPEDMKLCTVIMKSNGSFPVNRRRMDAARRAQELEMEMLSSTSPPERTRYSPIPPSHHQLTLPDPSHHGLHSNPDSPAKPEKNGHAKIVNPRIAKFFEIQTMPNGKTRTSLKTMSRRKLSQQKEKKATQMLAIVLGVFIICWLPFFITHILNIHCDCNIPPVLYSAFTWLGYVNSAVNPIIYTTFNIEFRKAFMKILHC
In a further experiment the target is D(3) dopamine receptor (Rattus norvegicus, UniProt P19020). The experiment in a line: biochemical.
Sequence of D(3) dopamine receptor (P19020 whole entry): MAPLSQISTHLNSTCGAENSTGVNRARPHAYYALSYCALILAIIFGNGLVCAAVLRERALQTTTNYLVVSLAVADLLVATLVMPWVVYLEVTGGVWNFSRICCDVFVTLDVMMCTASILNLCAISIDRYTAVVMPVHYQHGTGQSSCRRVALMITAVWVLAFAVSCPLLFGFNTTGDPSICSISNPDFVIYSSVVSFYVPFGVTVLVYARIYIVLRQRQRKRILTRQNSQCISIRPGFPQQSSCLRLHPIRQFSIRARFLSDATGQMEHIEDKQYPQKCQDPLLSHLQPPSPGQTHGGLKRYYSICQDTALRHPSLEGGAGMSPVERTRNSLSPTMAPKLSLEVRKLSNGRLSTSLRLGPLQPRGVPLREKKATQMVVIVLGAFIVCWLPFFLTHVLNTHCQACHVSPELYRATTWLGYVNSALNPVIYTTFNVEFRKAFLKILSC
Experiment [2] has as its system Mus musculus. Nature of the experiment: Dopaminergic activity in CD1 mouse tuberculum olfactorium assessed as dopamine turn over at 3.29 umol/kg, sc relative to control. The class given is functional.

Description for D(3) dopamine receptor: Displacement of [3H]spiperone from rat recombinant dopamine D3 receptor expressed in SF9 cells

Regarding `CN1CCc2cc(-c3cccc4c3oc3ccccc34)cc3c2[C@H]1Cc1ccc(O)c(O)c1-3.Cl`, the Activity in the experiment with Mus musculus [1] turned out to be 92%; with Mus musculus [2] it was 106.1%. Moreover, the IC50 was 3260 nM on D(2) dopamine receptor and 49.4 nM against D(3) dopamine receptor. The Ki on D(2) dopamine receptor came out at 1630 nM; at D(3) dopamine receptor, 22.3 nM.
On to `CN(C)c1ccc(-c2cc3c4c(c2)-c2c(ccc(O)c2O)C[C@H]4N(C)CC3)cc1.Cl.Cl`, for which the Activity in the experiment on Mus musculus [1] stood at 52.3%; in the experiment on Mus musculus [2] it was 84.5%. Also, the IC50 at D(2) dopamine receptor stood at 484 nM; against D(3) dopamine receptor, 178 nM. Moreover, the Ki was 242 nM on D(2) dopamine receptor and 78.4 nM at D(3) dopamine receptor.
With `Cc1cc2c3c(c1)-c1c(ccc(O)c1O)C[C@H]3N(C)CC2.Cl`, the Activity was 42.3% in the experiment on Mus musculus [1] and 43.6% in the experiment on Mus musculus [2]. Further, the IC50 was found to be 43 nM on D(2) dopamine receptor and 82.6 nM on D(3) dopamine receptor. Further, the Ki on D(2) dopamine receptor worked out at 20.7 nM; at D(3) dopamine receptor, 40.1 nM.
Turning to `CN1CCc2cc(-c3ccc(O)cc3)cc3c2[C@H]1Cc1ccc(O)c(O)c1-3.Cl`, the Activity was found to be 43.6% in the experiment with Mus musculus [1] and 39.6% in the experiment with Mus musculus [2]. In addition, the half-maximal inhibitory concentration (IC50) at D(2) dopamine receptor is 8.5 nM; against D(3) dopamine receptor it was 3.7 nM. In addition, the figures for the Ki on D(2) dopamine receptor and on D(3) dopamine receptor were 4.14 nM and 1.78 nM, respectively.
On to `CN1CCc2cccc3c2[C@H]1Cc1ccc(O)c(O)c1-3.CN1CCc2cccc3c2[C@H]1Cc1ccc(O)c(O)c1-3.Cl.Cl.O` [APOMORPHINE HYDROCHLORIDE], for which the results for the Activity in the experiment with Mus musculus [1] and in the experiment with Mus musculus [2] were 48.6% and 57.7%, respectively.
On to `CN1CCc2cc(-c3ccccc3)cc3c2[C@H]1Cc1ccc(O)c(O)c1-3.Cl`, for which the Activity in the experiment with Mus musculus [1] came out at 44.2%; in the experiment on Mus musculus [2] it was 50.9%. Besides, the results for the 50% inhibitory concentration (IC50) on D(2) dopamine receptor and against D(3) dopamine receptor were 23.3 nM and 14.7 nM, respectively. Besides, the Ki on D(2) dopamine receptor is 11.7 nM; on D(3) dopamine receptor, 7.7 nM.
